Laboratory results reported in patent US11440880B2, “Thalidomide analogs and methods of use” (The USA, as represented by the Secretary, Department of …, priority 2015, dated 2022).

Tests used:
[1] = tested on: fli1:EGFP zebrafish embryos (intersegmental vessel growth); assay: fli1:EGFP zebrafish embryo angiogenesis assay; type: in vivo; parameters: fli1:EGFP angiogenesis n (survived/tested): concentration or dose not given beside the values; conditions: for minimal effective concentration: Danio rerio, lowest concentration producing an effect, compounds not producing an effect shown at the highest evaluated concentration; for fli1:EGFP angiogenesis n (survived/tested): embryos alive after 24 hours of exposure
From the text: Zebrafish embryology: The use of zebrafish embryo (Danio rerio) bioassays as a preclinical model in the classification of novel compounds has increased in recent years due to several factors including; low cost, ease of maintenance, speed of embryonic development, transparency of the embryos and genetic conservation between zebrafish and humans (Howe et al., Nature 2013; 496:498; Therapontos et al., PNAS 2009, 106:8573; Mahony et al., PNAS 2013, 110:12703; Beedie et al., Oncotarget 2016, 7(22):33237; Beedie et al., Mol. Cancer Ther. 2015, 14(10):2228). Two established zebrafish reporter lines were used—the fli1:EGFP line, where the fli1 promoter drives expression of enhanced green fluorescent protein within the developing vasculature (Lawson et al., 2002), and the Tg(mpo::EGFP) line (also known as mpo:GFP), which expresses green fluorescent protein via the neutrophil specific myeloperoxidase promoter (Renshaw et al., Blood 2006, 108:3976). The use of these zebrafish transgenic reporter lines allows for the identification of potential anti-angiogenic and anti-inflammatory compounds respectively, and both have been used previously to successfully classify the action of thalidomide analogs (Therapontos et al., 2009; Mahony et al., 2013; Beedie et al., Oncotarget 2016, 7(22):33237; Beedie et al., Mol. Cancer Ther. 2015, 14(10):2228). Zebrafish embryos were treated with analogs as previously described (Mahony et al., 2013). Briefly, fli1:EGFP embryos were collected and embryos were allowed to develop for 24 hours. Embryos were dechorionated manually and exposed to test compounds or vehicle control for a further 24 hours, imaged and analyzed for intersegmental vessel (ISV) growth. At 24 hours post fertilisation (hpf) the ISVs were ideal to study to visualize and analyze the actions of compounds on angiogenesis. At this time point ISVs were rapidly forming beneath the developing head, over the body and had yet to form in the tail (Lawson and Weinstein, Developmental Biology 2002, 248:307; Therapontos and Vargesson, Developmental Dynamics 2010, 239:2761). Additionally, these sprouts would go on to form the bilateral dorsal longitudinal anastomotic vessels. By treating before this fusion and formation occurs, the effect of each compound on the individual vessels as well as overall patterning structural integrity (Isogai et al., Development 2003, 130:5281) could be determined. Tg(mpo::EGFP) were tail fin clipped as previously detailed (Renshaw et al., 2006; Mahony et al., 2013; Beedie et al., Oncotarget 2016, 7(22):33237; Beedie et al., Mol. Cancer Ther. 2015, 14(10):2228) and incubated with test compounds or vehicle control at 72 hours post fertilization. Fish were imaged at 24 hours and the number of migratory neutrophils present at the wound site were counted. Compounds inducing an at least 50% reduction of neutrophils to the wound site were considered to have anti-inflammatory properties in this system. All larvae were assessed for viability and morphological integrity.
To determine if the thalidomide analogs had any effect on angiogenesis, fli1:EGFP embryos (Lawson and Weinstein, Developmental Biology 2002, 248:307-318) were exposed to either vehicle or a compound of interest, over a range of concentrations and over a range of time points starting at 24 hpf. Images were obtained at three time points over 24 hours after exposure to the compounds. The best concentration and time point were selected. CPS49, a compound that is chemically and structurally similar to thalidomide breakdown products, and is tetrafluorinated (which adds stability and bioactivity to the compound) and that causes severe limb defects in chicken embryos, was used as a positive control. The embryos were imaged at 48 hpf (FIGS. 3A3L) and analyzed for both vessel formation and the extent of growth of the vasculature. […]

RAW 264.7 cells = assay: Cell viability (CellTiter 96 AQueous One) of LPS-challenged RAW 264.7 cells; type: cell-based, mouse; parameters: key: NS=not significant; a “+” sign=anti-inflammatory or increased cell numbers; a “−” sign=cell toxicity or pro-inflammatory
Protocol: The CellTiter 96® AQueous One Solution Cell Proliferation Assay (Promega, Madison, Wis.) is routinely used as an assay of cell proliferation, and was used according to the manufacturer's recommendations. Changes in cellular health status are determined by use of indirect measures related to the formation of a colored tetrazolium dye product that can be measured spectrophotometrically at 490 nm λ. […] Optical densities (expressed as O.D.s) were measured after various incubations.
(§1) RAW 264.7 cells obtained from ATCC (Manassas, Va., USA) were grown in DMEM media supplemented with 10% FCS, penicillin 100 μg/ml and streptomycin 100 μg/ml, and maintained at 37° C. and 5% CO2. Cells were seeded in 24 well plates and, 24 hours later, were utilized in studies. One hour prior to the initiation of any study, the seeding media was replaced with fresh media (1 mL), and the cells were allowed to equilibrate at 37° C. and 5% CO2.
(§2) RAW 264.7 cells were challenged with LPS (Sigma, St Louis, Mo.: serotype 055:B5) from at a final concentration of 30 or 60 ng/mL. This concentration of LPS in RAW 264.7 cells induces a sub-maximal rise in both TNF-alpha and nitrite levels without a loss in cellular viability. This sub-maximal rise is useful for assessing whether the addition of an experimental drug can either lower or further raise levels of TNF-α and nitrite. Twenty four hours following the addition of LPS, conditioned media was harvested and analyzed for quantification of secreted TNF-α protein and nitrite levels. Fresh media was replaced into the wells and cell viability was then assessed.
(§3) Thalidomide and analogs were prepared in tissue culture grade DMSO (Sigma). RAW 264.7 cells were pretreated with thalidomide, analogues or vehicle one hour prior to a challenge with LPS. The effects of various concentrations of thalidomide analogues were assessed. All compounds were synthesized to a chemical purity of >99.5%, as assessed by chemical characterization by a combination of 1H NMR, 13C NMR and GC/MS analyses (Bruker AC-300 spectrometer, together with elemental analyses (Atlantic Microlab, Inc., Norcross, Ga.).

TNF-α protein = TNF-α protein level (ELISA) in LPS-challenged RAW 264.7 cells; type: cell-based, mouse; parameters: key: NS=not significant; a “+” sign=anti-inflammatory or increased cell numbers; a “−” sign=cell toxicity or pro-inflammatory; conditions: LPS 30 or 60 ng/mL, 24 h
Protocol: (§4) Nitrite levels in the culture media were measured by use of the Griess Reagent System (Promega, Madison, Wis.), following the manufacturer's protocol. The O.D. of unknown samples was read at 520 nm λ, compared to a sodium nitrite standard curve (1.5 μM to 100 μM) and nitrite measured media concentrations expressed as μM units. As the lowest nitrite concentration on the Griess Reagent System standard curve was 1.5 μM, this was chosen as the effective cutoff for defining measurable nitrite concentrations. TNF-α protein levels were measured by use of an ELISA specific for mouse TNF-α protein (BioLegend, San Diego, Calif.) and are expressed as a % change from their appropriate control or as pg/ml.
as §1, §2, §3

[2] = tested on: nitrite levels in the culture media; assay: Nitrite level (Griess Reagent System) in LPS-challenged RAW 264.7 cells; type: cell-based, mouse; parameters: key: NS=not significant; a “+” sign=anti-inflammatory or increased cell numbers; a “−” sign=cell toxicity or pro-inflammatory; conditions: LPS 30 or 60 ng/mL, 24 h
Protocol: as §4, §1, §2, §3

Row | Compound | anti-angiogenic effect (loss of ISVs or inhibition of ISV outgrowth) ([1]; in words) | Viability (RAW 264.7 cells; 1 μM) | Viability (RAW 264.7 cells; 10 μM) | Viability (RAW 264.7 cells; 30 μM) | minimal effective concentration [1] [µg/mL] | fli1:EGFP angiogenesis n (survived/tested) [1] | TNF-α (TNF-α protein; 1 μM) | TNF-α (TNF-α protein; 10 μM) | TNF-α (TNF-α protein; 30 μM) | Nitrite ([2]; 1 μM) | Nitrite ([2]; 10 μM) | Nitrite ([2]; 30 μM) | Viability (RAW 264.7 cells; 60 μM) | TNF-α (TNF-α protein; 60 μM) | Nitrite ([2]; 60 μM)
1 | O=C1c2c(F)c(F)c(F)c(F)c2C(=O)N1c1ccc(F)cc1F [CPS49, reference compound] | decrease in blood vessel length |  |  |  |  |  |  |  |  |  |  |  |  |  | 
2 | CC(N1Cc2c(cccc2[N+](=O)[O-])C1=S)C12CC3CC(CC(C3)C1)C2 (stereo not shown) [Compound 89] |  | NS | NS | − | 10 | 7/11 | NS | NS | NS | NS | + | + |  |  | 
3 | C[C@H]1[C@H](N2Cc3c(N)cccc3C2=O)C[C@@H]2C[C@H]1C2(C)C [Compound 91] |  | NS | + | + | 10 | 5/18 | NS | + | + | + | + | + |  |  | 
4 | C[C@@H]1[C@@H](N2Cc3c(N)cccc3C2=O)C[C@H]2C[C@@H]1C2(C)C [Compound 93] |  | NS | NS | NS | 10 | 8/10 | NS | NS | NS | NS | NS | + |  |  | 
5 | CC1(C)[C@@H]2CC[C@H](CN3Cc4c(N)cccc4C3=O)[C@H]1C2 [Compound 104] |  | NS | NS | NS |  |  | NS | NS | NS | − | − | − |  |  | 
6 | C[C@@H]1[C@@H](N2C=C3C(=CC=C/C3=N\OO)C2=O)C[C@H]2C[C@@H]1C2(C)C [Compound 105] |  | NS | NS | − |  |  | NS | NS | + | NS | + | + |  |  | 
7 | CC1(C)[C@@H]2CC[C@H](CN3C(=O)C4CC=CCC4C3=O)[C@H]1C2 (stereo partly shown) [Compound 112] |  |  | − | − |  |  |  | NS | + |  | NS | + | − | + | +
8 | CC1(C)[C@@H]2CC[C@H](CN3C(=O)C4C5C=CC(C5)C4C3=O)[C@H]1C2 (stereo partly shown) [Compound 113] |  |  | − | − |  |  |  | NS | + |  | NS | + | − | + | +
9 | CC1(C)[C@@H]2CC[C@H](CN3C(=O)C4C5C=CC(C5)C4C3=O)[C@H]1C2 (stereo partly shown) [Compound 114] |  |  | − | − |  |  |  | + | + |  | + | + | − | + | +
10 | CC1(C)[C@@H]2CC[C@]1(C)[C@@H](N1C(=O)C3CC=CCC3C1=O)C2 (stereo partly shown) [Compound 115] |  |  | − | − |  |  |  | + | + |  | + | + | − | + | +
11 | CC1(C)[C@@H]2CC[C@@]1(C)[C@@H](N1C(=O)C3C4C=CC(C4)C3C1=O)C2 (stereo partly shown) [Compound 116] |  |  | − | − |  |  |  | NS | NS |  | NS | NS | NS | NS | NS
12 | CC1(C)[C@@H]2CC[C@]1(C)[C@@H](N1C(=O)C3C4C=CC(C4)C3C1=O)C2 (stereo partly shown) [Compound 117] |  |  | − | − |  |  |  | + | + |  | + | + | − | + | +
13 | C[C@H]1[C@H](N2C(=O)C3CC=CCC3C2=O)C[C@@H]2C[C@H]1C2(C)C (stereo partly shown) [Compound 118] |  |  | − | − |  |  |  | + | + |  | + | + | − | + | +
14 | C[C@H]1[C@H](N2C(=O)C3C4C=CC(C4)C3C2=O)C[C@@H]2C[C@H]1C2(C)C (stereo partly shown) [Compound 119] |  |  | − | − |  |  |  | + | + |  | + | + | − | + | +
